Assay results from patent EP3891153B1, “NAPHTHALIMIDOFURANS FOR APPLICATIONS IN MOLECULAR BIOLOGY” (Univerzita Karlova, 1. Lékarská Fakulta, priority 2018, dated 2020).

Test: UV/VIS and fluorescence studies (spectral properties of the probes in four solvents)
Format: physicochemical
Settings: for fluorescence intensities: compared with probes 2 and 4 with pyranone motive; for Absorbance maxima (nm) / Emission maxima (nm): 1 µM or 0,1 µM
Experimental: Spectral properties of fluorescent probes 2, 4, 6, 8 and 10 (2 and 4 are for reference only) Spectral characteristics of probes were obtained by using a UV/VIS and fluorescence studies. The probes were measured in four solvents (DMSO, methanol, ethanol and phosphate buffer). Each LysoSers was at first dissolved in DMSO 1mM stock solution which was diluted to a final concentration 1 µM or 0,1 µM.
All prepared probes have absorption maximum in the ultraviolet range of 350-400 nm and emission maximum in the range of 400 to 450 nm. […] Table 1. Absorption and emission maxima of probes 2, 4, 6, 8 and 10 in different solvents (probes 2 and 4 are for reference only)

fluorescence intensities | Absorbance maxima (nm) (solvent DMSO) | Emission maxima (nm) (solvent DMSO) | Absorbance maxima (nm) (solvent EtOH) | Emission maxima (nm) (solvent EtOH) | Absorbance maxima (nm) (solvent MeOH) | Emission maxima (nm) (solvent MeOH) | Absorbance maxima (nm) (solvent PBS) | Emission maxima (nm) (solvent PBS) | SMILES
 | 379 nm | 440 nm | 388 nm | 448 nm | 387 nm | 442 nm | 389 nm | 448 nm | CCCCCCN1C(=O)c2cccc3c2c(cc2oc(=O)c(C(=O)NCCN(C)C)cc23)C1=O [Probe 2]
higher fluorescence intensities | 373 nm | 424 nm | 376 nm | 422 nm | 373 nm | 421 nm | 373 nm | 429 nm | CCCCCCN1C(=O)c2cccc3c2c(cc2oc(C(=O)NCCN(C)C)cc23)C1=O [Probe 6]

Continued, compound first:

SMILES | fluorescence intensities | Absorbance maxima (nm) (solvent DMSO) | Emission maxima (nm) (solvent DMSO) | Absorbance maxima (nm) (solvent EtOH) | Emission maxima (nm) (solvent EtOH) | Absorbance maxima (nm) (solvent MeOH) | Emission maxima (nm) (solvent MeOH) | Absorbance maxima (nm) (solvent PBS) | Emission maxima (nm) (solvent PBS)
CCCCCCN1C(=O)c2cccc3c2c(cc2cc(C(=O)NCCN(C)C)oc23)C1=O [Probe 8] | higher fluorescence intensities | 368 nm | 416 nm | 341 nm | 415 nm | 341 nm | 416 nm | 360 nm | 428 nm
CCCCCCN1C(=O)c2cccc3c2c(cc2cc(C(=O)NCCN(C)C)c(=O)oc23)C1=O [Probe 4] |  | 368 nm | 432 nm | 319 nm | 434 nm | 317 nm | 435 nm | 320 nm | 437 nm
CN(C)CCNC(=O)c1cc2c(cc3c4c(cccc42)C(=O)N(C)C3=O)o1 [Probe 10] | higher fluorescence intensities | 377 nm | 435 nm | 365 nm | 410 nm | 372 nm | 420 nm | 377 nm | 431 nm
